# Test results taken from ChEMBL document CHEMBL6121006, “Marine natural product-inspired discovery of novel BRD4 inhibitors with anti-inflammatory activity” (Eur J Med Chem, 2025).
# Active and inactive are the calls of the source. No cut-off for these calls is given here.
# Experiments:
# [1] = target: T1, Bromodomain-containing protein 4 (Homo sapiens, UniProt O60885); experiment: Inhibition of human recombinant BRD4 BD2 (349 to 460 residues) extracted from Escherichia coli BL21 (DE3) incubated for 2 hrs by TR-FRET assay
# RAW264.7 [2] = experiment: Anti-inflammatory activity in mouse RAW264.7 cells assessed as inhibition of LPS-induced NO production at 10 uM preincubated with compound for 24 hrs followed by LPS stimulation by Griess reagent based analysis relative to control; assay type: functional; design: scale not given: the % may be the effect or the level left
# [3] = target: Bromodomain-containing protein 2 (Homo sapiens) (UniProt P25440); experiment: Inhibition of BRD2 BD1 (unknown origin) at 1 uM incubated for 2 hrs by TR-FRET assay relative to control
# Chain of Bromodomain-containing protein 2 (Homo sapiens) (P25440 whole entry, looked up): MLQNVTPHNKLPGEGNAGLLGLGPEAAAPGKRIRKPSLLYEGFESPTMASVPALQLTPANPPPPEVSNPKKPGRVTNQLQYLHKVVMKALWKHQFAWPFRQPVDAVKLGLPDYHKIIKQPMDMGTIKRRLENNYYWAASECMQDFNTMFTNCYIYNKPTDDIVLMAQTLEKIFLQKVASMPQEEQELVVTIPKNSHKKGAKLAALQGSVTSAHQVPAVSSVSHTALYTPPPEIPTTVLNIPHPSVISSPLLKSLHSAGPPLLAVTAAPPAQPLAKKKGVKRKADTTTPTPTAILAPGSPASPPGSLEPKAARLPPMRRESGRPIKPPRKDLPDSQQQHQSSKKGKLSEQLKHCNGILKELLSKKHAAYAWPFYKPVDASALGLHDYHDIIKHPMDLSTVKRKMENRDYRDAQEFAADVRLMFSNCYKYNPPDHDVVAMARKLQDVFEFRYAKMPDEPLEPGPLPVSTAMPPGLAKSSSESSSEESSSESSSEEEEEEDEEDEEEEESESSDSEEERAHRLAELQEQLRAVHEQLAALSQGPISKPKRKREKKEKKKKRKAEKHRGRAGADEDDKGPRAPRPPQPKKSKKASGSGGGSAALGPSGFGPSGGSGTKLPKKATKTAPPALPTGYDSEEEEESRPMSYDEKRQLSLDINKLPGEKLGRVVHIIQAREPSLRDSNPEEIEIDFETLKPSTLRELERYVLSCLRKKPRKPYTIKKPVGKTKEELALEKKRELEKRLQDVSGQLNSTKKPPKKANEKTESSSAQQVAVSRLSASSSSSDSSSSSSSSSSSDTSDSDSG
# [4] = target: Bromodomain-containing protein 3 (Homo sapiens) (UniProt Q15059); experiment: Inhibition of BRD3 BD1 (unknown origin) at 1 uM incubated for 2 hrs by TR-FRET assay relative to control
# [5] = target: Bromodomain testis-specific protein (Homo sapiens) (UniProt Q58F21); experiment: Inhibition of BRDT BD1 (unknown origin) at 1 uM incubated for 2 hrs by TR-FRET assay relative to control
# [6] = target: Bromodomain testis-specific protein (Homo sapiens) (UniProt Q58F21); experiment: Inhibition of BRDT BD2 (unknown origin) at 1 uM incubated for 2 hrs by TR-FRET assay relative to control
# [7] = target: T2, Bromodomain-containing protein 9 (Homo sapiens) (UniProt Q9H8M2); experiment: Inhibition of BRD9 (unknown origin) at 1 uM incubated for 2 hrs by TR-FRET assay relative to control
# T2 sequence (whole entry): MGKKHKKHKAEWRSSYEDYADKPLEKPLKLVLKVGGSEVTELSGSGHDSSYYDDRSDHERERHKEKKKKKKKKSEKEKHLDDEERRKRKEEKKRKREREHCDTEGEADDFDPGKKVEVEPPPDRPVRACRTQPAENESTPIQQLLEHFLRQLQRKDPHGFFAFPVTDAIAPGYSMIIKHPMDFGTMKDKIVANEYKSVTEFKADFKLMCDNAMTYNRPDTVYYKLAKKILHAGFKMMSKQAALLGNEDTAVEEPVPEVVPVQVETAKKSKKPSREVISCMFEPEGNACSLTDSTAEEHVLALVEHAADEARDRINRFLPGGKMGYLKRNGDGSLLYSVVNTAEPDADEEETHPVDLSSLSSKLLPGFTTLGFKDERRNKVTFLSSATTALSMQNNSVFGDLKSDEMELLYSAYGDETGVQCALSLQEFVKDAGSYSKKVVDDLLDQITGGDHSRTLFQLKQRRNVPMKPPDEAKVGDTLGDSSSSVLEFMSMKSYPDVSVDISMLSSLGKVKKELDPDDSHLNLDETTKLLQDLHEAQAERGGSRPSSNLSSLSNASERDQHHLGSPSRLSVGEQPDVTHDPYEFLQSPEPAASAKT
# [8] = target: CREB-binding protein (Homo sapiens) (UniProt Q92793); experiment: Inhibition of CREBBP (unknown origin) at 1 uM incubated for 2 hrs by TR-FRET assay relative to control
# Chain of CREB-binding protein (Homo sapiens) (Q92793 2-2442 limits assumed): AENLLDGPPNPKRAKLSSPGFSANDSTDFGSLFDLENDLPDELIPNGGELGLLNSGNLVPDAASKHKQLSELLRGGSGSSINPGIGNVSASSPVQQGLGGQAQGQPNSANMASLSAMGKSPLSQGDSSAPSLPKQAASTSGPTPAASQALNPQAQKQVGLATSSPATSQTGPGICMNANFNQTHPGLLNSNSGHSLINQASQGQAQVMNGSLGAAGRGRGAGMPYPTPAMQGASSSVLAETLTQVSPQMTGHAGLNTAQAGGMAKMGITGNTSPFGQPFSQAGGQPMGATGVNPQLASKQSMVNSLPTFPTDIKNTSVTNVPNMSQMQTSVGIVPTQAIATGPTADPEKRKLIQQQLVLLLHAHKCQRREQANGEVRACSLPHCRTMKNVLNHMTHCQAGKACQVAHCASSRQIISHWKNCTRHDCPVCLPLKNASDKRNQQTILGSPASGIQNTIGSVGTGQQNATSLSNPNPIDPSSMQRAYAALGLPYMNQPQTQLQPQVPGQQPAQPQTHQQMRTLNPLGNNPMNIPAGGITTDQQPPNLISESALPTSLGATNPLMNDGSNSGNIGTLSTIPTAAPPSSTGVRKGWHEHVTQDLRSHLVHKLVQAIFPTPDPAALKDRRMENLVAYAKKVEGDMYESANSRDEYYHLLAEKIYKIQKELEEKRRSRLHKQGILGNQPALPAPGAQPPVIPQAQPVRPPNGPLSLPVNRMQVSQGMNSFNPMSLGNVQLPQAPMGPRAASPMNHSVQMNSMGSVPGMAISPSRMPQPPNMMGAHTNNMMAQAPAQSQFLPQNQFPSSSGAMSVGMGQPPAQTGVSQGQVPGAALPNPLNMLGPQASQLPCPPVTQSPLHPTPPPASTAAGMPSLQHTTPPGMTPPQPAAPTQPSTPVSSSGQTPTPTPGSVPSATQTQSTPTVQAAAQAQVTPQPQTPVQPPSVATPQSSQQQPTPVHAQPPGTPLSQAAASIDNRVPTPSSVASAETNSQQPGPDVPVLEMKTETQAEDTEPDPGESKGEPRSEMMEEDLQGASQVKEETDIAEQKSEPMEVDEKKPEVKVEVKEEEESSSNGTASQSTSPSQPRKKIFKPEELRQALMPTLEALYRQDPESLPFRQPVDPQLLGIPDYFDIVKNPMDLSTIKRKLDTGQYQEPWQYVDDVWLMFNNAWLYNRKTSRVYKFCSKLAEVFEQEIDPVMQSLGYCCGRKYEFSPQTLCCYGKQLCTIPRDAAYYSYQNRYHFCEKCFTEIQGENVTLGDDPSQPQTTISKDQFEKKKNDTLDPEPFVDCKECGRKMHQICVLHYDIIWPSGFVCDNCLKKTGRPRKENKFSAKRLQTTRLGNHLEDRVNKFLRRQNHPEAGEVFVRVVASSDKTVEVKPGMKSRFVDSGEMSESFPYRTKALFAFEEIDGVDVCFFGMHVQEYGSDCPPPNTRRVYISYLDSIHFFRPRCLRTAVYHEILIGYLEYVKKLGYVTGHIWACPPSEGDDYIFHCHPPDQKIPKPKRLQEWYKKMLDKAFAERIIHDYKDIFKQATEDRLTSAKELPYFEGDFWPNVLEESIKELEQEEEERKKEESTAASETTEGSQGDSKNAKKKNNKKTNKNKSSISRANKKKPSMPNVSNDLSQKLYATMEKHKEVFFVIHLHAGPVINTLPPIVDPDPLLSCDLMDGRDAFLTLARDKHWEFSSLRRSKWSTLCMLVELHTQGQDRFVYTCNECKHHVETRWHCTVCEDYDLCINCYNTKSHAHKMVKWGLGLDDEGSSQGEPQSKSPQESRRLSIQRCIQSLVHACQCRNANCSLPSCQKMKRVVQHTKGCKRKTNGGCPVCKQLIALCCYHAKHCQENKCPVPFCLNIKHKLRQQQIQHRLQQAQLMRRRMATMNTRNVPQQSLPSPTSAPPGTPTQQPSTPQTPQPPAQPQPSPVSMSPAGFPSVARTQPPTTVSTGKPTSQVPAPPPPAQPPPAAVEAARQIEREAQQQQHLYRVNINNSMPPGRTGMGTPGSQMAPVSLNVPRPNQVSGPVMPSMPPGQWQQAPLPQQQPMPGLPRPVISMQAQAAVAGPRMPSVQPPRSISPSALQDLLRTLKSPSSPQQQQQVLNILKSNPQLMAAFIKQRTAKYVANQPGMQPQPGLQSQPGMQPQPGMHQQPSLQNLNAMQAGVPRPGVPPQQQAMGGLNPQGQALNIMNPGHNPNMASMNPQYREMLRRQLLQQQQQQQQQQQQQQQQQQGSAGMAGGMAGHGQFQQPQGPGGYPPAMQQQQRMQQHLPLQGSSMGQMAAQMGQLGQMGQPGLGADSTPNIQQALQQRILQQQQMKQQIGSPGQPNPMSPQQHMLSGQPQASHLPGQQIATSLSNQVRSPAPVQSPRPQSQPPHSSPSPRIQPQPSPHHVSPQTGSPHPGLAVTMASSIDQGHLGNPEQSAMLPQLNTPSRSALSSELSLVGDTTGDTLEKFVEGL
# [9] = target: Transcription initiation factor TFIID subunit 1 (Homo sapiens) (UniProt P21675); experiment: Inhibition of TAF1 (unknown origin) at 1 uM incubated for 2 hrs by TR-FRET assay relative to control
# Chain of Transcription initiation factor TFIID subunit 1 (Homo sapiens) (P21675 whole entry, the tested form may be a part): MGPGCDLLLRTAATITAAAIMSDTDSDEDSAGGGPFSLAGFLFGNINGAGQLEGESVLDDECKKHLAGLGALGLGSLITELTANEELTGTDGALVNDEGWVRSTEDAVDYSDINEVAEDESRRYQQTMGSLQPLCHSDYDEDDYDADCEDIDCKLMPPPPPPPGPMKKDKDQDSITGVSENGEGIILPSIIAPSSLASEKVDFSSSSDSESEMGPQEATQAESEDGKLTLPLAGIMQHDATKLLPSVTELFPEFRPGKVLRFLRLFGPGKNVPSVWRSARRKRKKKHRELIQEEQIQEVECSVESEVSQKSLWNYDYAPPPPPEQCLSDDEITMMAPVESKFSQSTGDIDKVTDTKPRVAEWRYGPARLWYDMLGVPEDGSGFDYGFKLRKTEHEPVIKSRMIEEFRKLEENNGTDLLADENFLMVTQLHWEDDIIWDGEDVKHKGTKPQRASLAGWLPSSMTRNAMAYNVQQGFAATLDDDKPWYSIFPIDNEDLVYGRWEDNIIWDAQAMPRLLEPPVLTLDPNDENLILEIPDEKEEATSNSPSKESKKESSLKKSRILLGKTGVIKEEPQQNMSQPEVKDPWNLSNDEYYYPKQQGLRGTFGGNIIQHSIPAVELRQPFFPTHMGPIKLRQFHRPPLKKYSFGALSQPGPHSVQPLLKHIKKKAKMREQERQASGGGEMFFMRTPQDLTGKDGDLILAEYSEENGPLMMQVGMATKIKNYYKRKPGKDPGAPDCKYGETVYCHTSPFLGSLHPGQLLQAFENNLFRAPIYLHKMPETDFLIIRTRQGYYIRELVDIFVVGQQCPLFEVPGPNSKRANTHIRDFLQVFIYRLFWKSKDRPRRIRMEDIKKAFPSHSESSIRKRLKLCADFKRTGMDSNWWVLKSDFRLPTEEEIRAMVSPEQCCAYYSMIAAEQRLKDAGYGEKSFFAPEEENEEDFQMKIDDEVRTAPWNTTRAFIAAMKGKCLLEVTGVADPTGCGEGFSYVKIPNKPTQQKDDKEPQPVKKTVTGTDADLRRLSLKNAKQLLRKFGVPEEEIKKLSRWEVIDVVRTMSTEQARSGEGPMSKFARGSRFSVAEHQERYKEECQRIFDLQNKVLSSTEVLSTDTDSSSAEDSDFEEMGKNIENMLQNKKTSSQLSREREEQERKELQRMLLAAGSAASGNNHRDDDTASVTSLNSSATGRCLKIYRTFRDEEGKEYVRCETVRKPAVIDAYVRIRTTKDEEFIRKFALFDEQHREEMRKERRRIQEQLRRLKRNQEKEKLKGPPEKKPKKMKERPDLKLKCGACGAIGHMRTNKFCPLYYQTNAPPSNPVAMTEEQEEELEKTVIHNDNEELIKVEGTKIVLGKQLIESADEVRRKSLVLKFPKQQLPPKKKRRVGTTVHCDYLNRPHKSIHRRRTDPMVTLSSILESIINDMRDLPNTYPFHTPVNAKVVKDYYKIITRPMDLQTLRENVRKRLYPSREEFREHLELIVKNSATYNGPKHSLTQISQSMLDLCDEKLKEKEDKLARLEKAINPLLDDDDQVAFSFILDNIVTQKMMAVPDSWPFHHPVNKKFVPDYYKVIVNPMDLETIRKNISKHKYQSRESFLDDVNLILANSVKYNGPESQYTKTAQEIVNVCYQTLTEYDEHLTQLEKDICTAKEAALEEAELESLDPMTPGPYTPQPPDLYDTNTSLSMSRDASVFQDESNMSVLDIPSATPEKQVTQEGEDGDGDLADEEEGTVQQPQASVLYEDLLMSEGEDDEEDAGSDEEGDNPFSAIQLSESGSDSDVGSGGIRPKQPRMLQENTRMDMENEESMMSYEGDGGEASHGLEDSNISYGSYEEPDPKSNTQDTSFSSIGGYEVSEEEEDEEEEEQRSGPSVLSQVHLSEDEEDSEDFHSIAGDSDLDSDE
# [10] = target: T1, Bromodomain-containing protein 4; experiment: Induction of thermal stabilization of human recombinant BRD4 […] (42 to 167 residues) extracted from Escherichia coli BL21 (DE3) incubated for 30 mins by thermal shift assay
# RAW264.7 [11] = experiment: Cytotoxicity against mouse RAW264.7 cells at 20 uM measured after 24 hrs by CCK8 method; assay type: functional, cell-based
# THP-1 [12] = experiment: Anti-inflammatory activity in human THP-1 cells assessed as inhibition of LPS-induced TNF-alpha expression preincubated with compound for 2 hrs followed by LPS stimulation and measured after 6 hrs by RT-qPCR analysis; assay type: functional, cell-based; settings: dose 2.5-20 µM, time 8.0 hrs
# Mus musculus [13] = experiment: Antiinflammatory activity against C57BL/6 mouse acute inflammation model assessed as inhibition of LPS-induced IL-6 level at 50 to 100 mg/kg, po pre-administered for 2 hrs followed by LPS stimulation for 6 hrs by ELISA method; assay type: functional, organism-based; settings: dose 50-100 mg/kg, time 8.0 hrs
# RAW264.7 [14] = experiment: Anti-inflammatory activity in mouse RAW264.7 cells assessed as inhibition of LPS-induced TNF-alpha level preincubated with compound for 2 hrs followed by LPS stimulation and measured after 22 hrs by ELISA method; assay type: functional, cell-based; settings: dose 2.5-20 µM, time 24.0 hrs
# THP-1 [15] = experiment: Anti-inflammatory activity in human THP-1 cells assessed as inhibition of LPS-induced IL-6 level preincubated with compound for 2 hrs followed by LPS stimulation and measured after 22 hrs by ELISA method; assay type: functional, cell-based; settings: dose 2.5-20 µM, time 24.0 hrs
# Mus musculus [16] = experiment: Antiinflammatory activity against C57BL/6 mouse acute inflammation model assessed as inhibition of LPS-induced TNF-alpha level at 50 to 100 mg/kg, po pre-administered for 2 hrs followed by LPS stimulation for 6 hrs by ELISA method; assay type: functional, organism-based; settings: dose 50-100 mg/kg, time 8.0 hrs
# Mus musculus [17] = experiment: Antiinflammatory activity against C57BL/6 mouse acute inflammation model assessed as reduction in LPS induced lung edema at 50 to 100 mg/kg, po pre-administered for 2 hrs followed by LPS stimulation for 6 hrs; assay type: functional, organism-based; settings: dose 50-100 mg/kg, time 8.0 hrs
# Mus musculus [18] = experiment: Antiinflammatory activity against LPS-induced C57BL/6 mouse acute inflammation model assessed as improvement of distorted hepatic lobular structure in liver at 50 to 100 mg/kg, po pre-administered for 2 hrs followed by LPS stimulation for 6 hrs; assay type: functional, organism-based; settings: dose 50-100 mg/kg, time 8.0 hrs
# Mus musculus [19] = experiment: Antiinflammatory activity against LPS-induced C57BL/6 mouse acute inflammation model assessed as improvement of hepatic necrosis in liver at 50 to 100 mg/kg, po pre-administered for 2 hrs followed by LPS stimulation for 6 hrs; assay type: functional, organism-based; settings: dose 50-100 mg/kg, time 8.0 hrs
# Mus musculus [20] = experiment: Antiinflammatory activity against LPS-induced C57BL/6 mouse acute inflammation model assessed as rescue of damaged renal tubule cells in kidney at 50 to 100 mg/kg, po pre-administered for 2 hrs followed by LPS stimulation for 6 hrs; assay type: functional, organism-based; settings: dose 50-100 mg/kg, time 8.0 hrs
# Mus musculus [21] = experiment: Antiinflammatory activity against LPS-induced C57BL/6 mouse acute inflammation model assessed as rescue of damaged glomerular cells in kidney at 50 to 100 mg/kg, po pre-administered for 2 hrs followed by LPS stimulation for 6 hrs; assay type: functional, organism-based; settings: dose 50-100 mg/kg, time 8.0 hrs
# Mus musculus [22] = experiment: Antiinflammatory activity against LPS-induced C57BL/6 mouse acute inflammation model assessed as increase in proportion of normal renal tubules at 100 mg/kg, po pre-administered for 2 hrs followed by LPS stimulation for 6 hrs; assay type: functional, organism-based; settings: time 8.0 hrs
# Mus musculus [23] = experiment: Antiinflammatory activity against LPS-induced C57BL/6 mouse acute inflammation model assessed as improvement of internal brush boundary structure at 100 mg/kg, po pre-administered for 2 hrs followed by LPS stimulation for 6 hrs; assay type: functional, organism-based; settings: time 8.0 hrs
# [24] = Toxicity in C57BL/6 mouse effect on body weight at 100 mg/kg, po measured after 24 hrs; assay type: organism-based; settings: in vivo
# [25] = Toxicity in C57BL/6 mouse effect on heart at 100 mg/kg, po measured after 24 hrs; assay type: organism-based; settings: in vivo
# [26] = Toxicity in C57BL/6 mouse effect on liver at 100 mg/kg, po measured after 24 hrs; assay type: organism-based; settings: in vivo
# [27] = Toxicity in C57BL/6 mouse effect on intestine at 100 mg/kg, po measured after 24 hrs; assay type: organism-based; settings: in vivo
smiles,measurement,setting,value
COc1ccc(/C=C/c2nc3cc(OC)cc(OC)c3c(=O)[nH]2)cc1,IC50,[1],120 nM
same,Activity,RAW264.7 [2],106%
same,inhibition,[3],24%
same,inhibition,[4],25%
same,inhibition,[5],6%
same,inhibition,[6],7%
same,inhibition,[7],12%
same,inhibition,[8],15%
same,inhibition,[9],5%
same,Activity,[10],Active
same,Activity,RAW264.7 [11],inactive
same,Activity,THP-1 [12],Dose-dependent-effect
same,Activity,Mus musculus [13],Active
same,Activity,RAW264.7 [14],Dose-dependent-effect
same,Activity,THP-1 [15],Dose-dependent-effect
same,Activity,Mus musculus [16],Active
same,Activity,Mus musculus [17],Active
same,Activity,Mus musculus [18],Active
same,Activity,Mus musculus [19],Active
same,Activity,Mus musculus [20],Active
same,Activity,Mus musculus [21],Active
same,Activity,Mus musculus [22],Active
same,Activity,Mus musculus [23],Active
same,Activity,[24],Non-toxic
same,Activity,[25],Non-toxic
same,Activity,[26],Non-toxic
same,Activity,[27],Non-toxic
